Measurements as given in patent US9650339B2, “Inhibitors of histone demethylases” (Gilead Sciences, Inc., priority 2013, dated 2017).

Columns and labels:
KDM4C = biological target: T1, KDM4C (Homo sapiens, UniProt Q9H3R0); assay: Histone lysine demethylase immunofluorescence assay, U2OS cells transfected with KDM4C; type: cell-based; conditions: U2OS cells transfected with pCMVHA KDM4C; mark detected H3K9me3; 20 hours
T1 construct: Full length; host or cells: U2OS
T1 sequence (Q9H3R0 1-1056): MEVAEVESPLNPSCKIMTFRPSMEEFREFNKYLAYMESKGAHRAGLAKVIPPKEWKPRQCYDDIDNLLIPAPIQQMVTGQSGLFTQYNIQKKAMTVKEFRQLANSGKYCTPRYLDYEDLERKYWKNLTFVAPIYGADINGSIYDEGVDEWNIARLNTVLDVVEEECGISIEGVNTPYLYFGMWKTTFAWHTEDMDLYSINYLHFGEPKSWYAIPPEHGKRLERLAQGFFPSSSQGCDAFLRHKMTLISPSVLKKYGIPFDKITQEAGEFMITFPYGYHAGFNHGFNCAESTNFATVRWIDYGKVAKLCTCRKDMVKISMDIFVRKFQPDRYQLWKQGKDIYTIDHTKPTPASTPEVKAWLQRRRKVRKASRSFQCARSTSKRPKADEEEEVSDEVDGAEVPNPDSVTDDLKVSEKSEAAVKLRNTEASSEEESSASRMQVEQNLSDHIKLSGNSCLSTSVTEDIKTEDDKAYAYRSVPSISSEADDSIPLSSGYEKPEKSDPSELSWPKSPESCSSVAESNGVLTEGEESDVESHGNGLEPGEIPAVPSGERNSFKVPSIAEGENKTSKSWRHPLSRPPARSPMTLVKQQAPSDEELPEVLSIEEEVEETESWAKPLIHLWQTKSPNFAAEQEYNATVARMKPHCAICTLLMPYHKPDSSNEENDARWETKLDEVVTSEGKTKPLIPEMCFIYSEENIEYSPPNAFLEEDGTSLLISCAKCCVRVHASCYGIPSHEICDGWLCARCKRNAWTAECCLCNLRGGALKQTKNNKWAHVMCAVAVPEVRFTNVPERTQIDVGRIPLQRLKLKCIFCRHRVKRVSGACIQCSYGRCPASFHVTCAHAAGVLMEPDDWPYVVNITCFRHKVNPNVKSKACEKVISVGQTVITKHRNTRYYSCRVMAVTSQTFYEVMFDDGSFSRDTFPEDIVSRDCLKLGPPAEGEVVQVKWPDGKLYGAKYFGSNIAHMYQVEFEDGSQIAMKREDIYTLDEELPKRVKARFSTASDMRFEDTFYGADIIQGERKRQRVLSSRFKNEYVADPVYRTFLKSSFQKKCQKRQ
Procedure, shortened: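 U2OS cells were transiently transfected with HA-tagged demethylase and reseeded after 6 h into compound-containing DMEM/10% FBS for 20 h. Cells were fixed in formaldehyde and immunostained for HA and the relevant histone methyl mark, then imaged. IC50 is based on mean mark staining in HA+ transfected cells.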

KDM4C (JMJD2C) = biological target: T2, KDM4C (JMJD2C) (Homo sapiens, UniProt Q9H3R0); assay: Histone lysine demethylase AlphaLISA assay, KDM4C; type: biochemical; conditions: read-out: KDM4C HDME Inhibition IC50
T2 sequence (Q9H3R0 1-349): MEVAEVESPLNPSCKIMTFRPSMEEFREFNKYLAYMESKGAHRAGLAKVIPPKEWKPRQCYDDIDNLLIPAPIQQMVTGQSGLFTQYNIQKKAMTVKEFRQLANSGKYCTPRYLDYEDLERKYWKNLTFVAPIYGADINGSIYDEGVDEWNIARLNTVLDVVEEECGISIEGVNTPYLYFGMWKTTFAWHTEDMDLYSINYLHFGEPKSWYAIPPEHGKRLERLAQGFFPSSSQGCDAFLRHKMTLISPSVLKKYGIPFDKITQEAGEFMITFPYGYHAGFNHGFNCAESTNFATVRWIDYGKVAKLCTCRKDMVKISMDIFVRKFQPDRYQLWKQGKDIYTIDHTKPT
Procedure, shortened: (§1)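 Steps: enzyme equilibrated 10 min in buffer; compounds in 3% DMSO solution added, 10 min; substrate mix added (peptide, 25 μM L-Asc, 10 μM α-KG), room temperature; acceptor beads, then streptavidin donor beads, dark incubations; plate read.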

KDM7 (PHF8) = biological target: T3, KDM7 (PHF8) (Homo sapiens, UniProt Q9UPP1); assay: Histone lysine demethylase AlphaLISA assay, KDM7; type: biochemical; conditions: read-out: PHF8 HDME Inhibition IC50
T3 construct: KDM7 (PHF8); BRIC; 1-1322; Bac
T3 sequence (Q9UPP1 37-440 limits assumed): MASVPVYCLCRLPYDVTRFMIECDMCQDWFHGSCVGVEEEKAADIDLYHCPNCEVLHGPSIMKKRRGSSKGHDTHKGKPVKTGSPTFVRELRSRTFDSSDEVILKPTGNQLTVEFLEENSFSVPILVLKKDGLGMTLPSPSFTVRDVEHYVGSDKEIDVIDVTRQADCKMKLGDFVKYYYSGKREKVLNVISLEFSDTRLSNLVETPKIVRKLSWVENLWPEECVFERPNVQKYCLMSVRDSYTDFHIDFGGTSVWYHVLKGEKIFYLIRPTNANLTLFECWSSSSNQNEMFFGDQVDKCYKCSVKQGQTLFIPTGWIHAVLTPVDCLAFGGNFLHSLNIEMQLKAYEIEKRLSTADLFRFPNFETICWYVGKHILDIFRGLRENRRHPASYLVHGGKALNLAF
Procedure, shortened: as §1

Row | Structure (SMILES) | IC50 (KDM4C) [µM] | IC50 (KDM4C (JMJD2C)) [µM] | IC50 (KDM7 (PHF8)) [µM]
1 | CCN(CC)CCCCNC(=O)CNCc1cc(/C=N/C2CC2)ccn1 [Compound 48, 2-[({4-[N-cyclopropyl-carboximidoyl]pyridin-2-yl}methyl)amino]-N-[4-(diethylamino)-butyl]acetamide] | > 2.5 | 0.25 to 2.5 | < 0.25
2 | CCN(CCC#N)C(=O)CNCc1cc(/C=N/C2CC2)ccn1 [Compound 50, N-(2-cyanoethyl)-2-[({4-[N-cyclopropyl-carboximidoyl]-pyridin-2-yl}methyl)amino]-N-ethylacetamide] | > 2.5 | 0.25 to 2.5 | < 0.25
3 | CCN1CCCC1CNC(=O)CNCc1cc(/C=N/C2CC2)ccn1 (stereo not drawn) [Compound 51, 2-[({4-[N-cyclopropyl-carboximidoyl]-pyridin-2-yl}methyl)-amino]-N-[(1-ethylpyrrolidin-2-yl)methyl]acetamide] | > 2.5 | > 2.5 | 0.25 to 2.5
4 | O=C(CNCc1cc(/C=N/C2CC2)ccn1)NC1CCN(Cc2ccccc2)C1 (stereo not drawn) [Compound 53, N-(1-benzylpyrrolidin-3-yl)-2-[({4-[N-cyclopropyl-carboximidoyl]pyridin-2-yl}methyl)amino]-acetamide] | > 2.5 | 0.25 to 2.5 | < 0.25
5 | CN1CCN(C(=O)CNCc2cc(/C=N/C3CC3)ccn2)CC1 [Compound 54, 2-[({4-[N-cyclopropyl-carboximidoyl]-pyridin-2-yl}methyl)amino]-1-(4-methylpiperazin-1-yl)ethan-1-one] | > 2.5 | 0.25 to 2.5 | > 2.5
6 | O=C(CNCc1cc(/C=N/C2CC2)ccn1)N1CCC(Cc2ccccc2)CC1 [Compound 55, 1-(4-benzylpiperidin-1-yl)-2-[({4-[N-cyclopropyl-carboximidoyl]-pyridin-2-yl}methyl)amino]-ethan-1-one] | > 2.5 | 0.25 to 2.5 | 0.25 to 2.5
7 | C#CCN(C)C(=O)CNCc1cc(/C=N/C2CC2)ccn1 [Compound 56, 2-[({4-[N-cyclopropyl-carboximidoyl]-pyridin-2-yl}methyl)amino]-N-methyl-N-(prop-2-yn-1-yl)acetamide] | > 2.5 | > 2.5 | 0.25 to 2.5
8 | CON=Cc1ccnc(CNCCCN(C)C)c1 [Compound 64, [3-(dimethylamino)-propyl]({4-[(methoxyimino)-methyl]pyridin-2-yl}methyl)amine] | > 2.5 | > 2.5 | > 2.5
9 | CCN(CC)CCCCNCc1cc(C2NCCN2C)ccn1 (stereo not drawn) [Compound 65, [4-(diethylamino)-butyl]({[4-(1-methylimidazolidin-2-yl)pyridin-2-yl]methyl})amine] | > 2.5 | 0.25 to 2.5 | > 2.5
10 | CN(Cc1ccccc1F)C(=O)CNCc1cc(/C=N/CCO)ccn1 [Compound 92, N-[(2-fluorophenyl)methyl]-2-[({4-[[(2-hydroxyethyl)imino]-methyl]pyridin-2-yl}methyl)amino]-N-methylacetamide] | > 2.5 | > 2.5 | > 2.5
11 | OCC/N=C/c1ccnc(CNCCc2ccccc2OCc2ccccc2)c1 [Compound 93, 2-[({2-[({2-[2-(benzyloxy)phenyl]-ethyl}amino)methyl]-pyridin-4-yl}methylidene)-amino]ethan-1-ol] | > 2.5 | > 2.5 | > 2.5
12 | CCN(CCC#N)C(=O)CNCc1cc(/C=N/CCO)ccn1 [Compound 94, N-(2-cyanoethyl)-N-ethyl-2-[({4-[[(2-hydroxyethyl)imino]-methyl]pyridin-2-yl}methyl)amino]-acetamide] | > 2.5 | 0.25 to 2.5 | 0.25 to 2.5
13 | CN(C)C/C=C\CNCc1cc(C=O)ccn1 [Compound 99, 2-({[(2Z)-4-(dimethylamino)-but-2-en-1-yl]amino}methyl)-pyridine-4-carbaldehyde] | > 2.5 | > 2.5 | > 2.5

Further lines, results first:

Row | IC50 (KDM4C) [µM] | IC50 (KDM4C (JMJD2C)) [µM] | IC50 (KDM7 (PHF8)) [µM] | Structure (SMILES)
14 | 0.25 to 2.5 | > 2.5 | > 2.5 | CN(C)CC1CCC(CNCc2cc(/C=N/C3CC3)ccn2)CC1 (stereo not drawn) [Compound 46, N-[(2-{[({4-[(dimethylamino)-methyl]cyclohexyl}-methyl)amino]-methyl}pyridin-4-yl)methylidene]-cyclopropanamine]
15 | 0.25 to 2.5 | > 2.5 | > 2.5 | CN(C)CCCCCNCc1cc(/C=N/C2CC2)ccn1 [Compound 47, N-{[2-({[5-(dimethylamino)-pentyl]amino}-methyl)pyridin-4-yl]methylidene}-cyclopropanamine]
16 | 0.25 to 2.5 | 0.25 to 2.5 | 0.25 to 2.5 | O=C(CNCc1cc(/C=N/C2CC2)ccn1)N1CCC[C@@H]1CN1CCCC1 [Compound 49, 2-[({4-[N-cyclopropyl-carboximidoyl]pyridin-2-yl}methyl)amino]-1-[(2R)-2-(pyrrolidin-1-ylmethyl)pyrrolidin-1-yl]ethan-1-one]
17 | 0.25 to 2.5 | 0.25 to 2.5 | > 2.5 | CCN(CC)CCCCNCc1cc(/C=N/CCO)ccn1 [Compound 61, 2-[{[2-({[4-(diethylamino)-butyl]amino}-methyl)pyridin-4-yl]methylidene}-amino]ethan-1-ol]
18 | 0.25 to 2.5 | > 2.5 | > 2.5 | CCN(CC)CCCCNCc1cc(/C=N/CC(F)(F)C(F)(F)F)ccn1 [Compound 62, {[2-({[4-(diethylamino)-butyl]amino}methyl)pyridin-4-yl]methylidene} (2,2,3,3,3-pentafluoropropyl)-amine]
19 | 0.25 to 2.5 | < 0.25 | > 2.5 | CCN(CCN(C)C)C(=O)CNCc1cc(/C=N/CCC2CCCCC2)ccn1 [Compound 63, 2-[({4-[[(2-cydohexylethyl)-imino]methyl]pyridin-2-yl}methyl)amino]-N-[2-(dimethylamino)-ethyl]-N-ethylacetamide]
20 | 0.25 to 2.5 | < 0.25 | 0.25 to 2.5 | CCN(CCN(C)C)C(=O)CNCc1cc(/C=N/CCO)ccn1 [Compound 66]
21 | 0.25 to 2.5 | 0.25 to 2.5 | > 2.5 | CCN(CC)CCCCNCc1cc(/C=N\CCC2CCCCC2)ccn1 [Compound 67, (2-cyclohexylethyl)-({[2-({[4-(diethylamino)-butyl]amino}methyl)pyridin-4-yl]methylidene})-amine]
22 | 0.25 to 2.5 | > 2.5 | > 2.5 | CN(C)CC1CCC(CNCc2cc(C=O)ccn2)CC1 (stereo not drawn) [Compound 97, 2-{[({4-[(dimethylamino)-methyl]cyclohexyl}-methyl)amino]-methyl}pyridine-4-carbaldehyde]
23 | 0.25 to 2.5 | 0.25 to 2.5 | > 2.5 | CN(C)C/C=C/CNCc1cc(C=O)ccn1 [Compound 98, 2-({[(2E)-4-(dimethylamino)but-2-en-1-yl]amino}-methyl)pyridine-4-carbaldehyde]
24 | 0.25 to 2.5 | > 2.5 | > 2.5 | CN1CCC(CNCc2cc(C=O)ccn2)CC1 [Compound 100, 2-({[(1-methyl-piperidin-4-yl)methyl]amino}-methyl)pyridine-4-carbaldehyde]
25 | 0.25 to 2.5 | < 0.25 | 0.25 to 2.5 | CCN(CCN(C)C)C(=O)CNCc1cc(C=O)ccn1 [Compound 101]
